From patent publication US11000033B2, “Ketone or oxime compound, and herbicide” (NISSAN CHEMICAL CORPORATION, priority 2014, dated 2021) come the findings set out here.

Each structure is given as a SMILES string.

What all share (assay type): in vivo
In one series the test system is beet. The experiment in a line: Test Example 4: effect on crop by soil treatment (symbol f). The following applies: 320 g/ha. The procedure, abridged:
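Crop seed is sown in spots together with several weed species in a box of sterilized diluvial soil. It is covered by about 1.5 cm of soil and kept in a greenhouse held between 25° C. and 30° C.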

For the next series, the system named is rapeseed. The experiment in a line: Test Example 5: effect on crop by foliage application, plastic box (symbol g). Particulars: 320 g/ha, 3 weeks after application. The procedure, abridged:
(§1)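 Greenhouse test at 25° C. to 30° C. Seeds of crops and weeds were spot-sown in boxes of sterilized diluvial soil under roughly 1.5 cm soil cover, then grown for foliage treatment.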

Series [1] concerns Monochoria vaginalis. The experiment in a line: Test Example 1: herbicidal activity, application before weed generation in submerged conditions (symbol C). The following applies: application herbicide amount 320 g/ha. The gist of the method:
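Greenhouse growth at 25–30 °C lasted 3 weeks after treatment, when each weed was graded 0–5 by herbicidal ratio. Treatment was a diluted emulsion applied to the water surface of 4 cm-submerged alluvial soil on the sowing day.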

The test system of another series is Veronica persica. As to the kind of experiment: Test Example 4: herbicidal effect by soil treatment (symbol R). Particulars: 320 g/ha. The procedure, abridged: (§2)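 Seeds were sown in sterilized diluvial soil, covered with about 1.5 cm of soil, and the soil surface was sprayed with a water-diluted emulsion of the compound at a predetermined rate. Plants grew in a greenhouse at 25° C. to 30° C.; effects were scored visually 3 weeks after application.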

For a further series, the system named is Avena fatua. The experiment in a line: Test Example 4: herbicidal effect by soil treatment (symbol I). The following applies: 320 g/ha. The gist of the method:
as §2

A further series relates to Apera spica-venti. The experiment in a line: Test Example 5: herbicidal effect by foliage application, plastic box (symbol L). Particulars: 320 g/ha, 3 weeks after application. The procedure, abridged:
(§3)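 Post-emergence spray; diluvial soil (sterilized), ~1.5 cm seed cover; greenhouse 25–30° C; 14-day-old plants; water-diluted emulsion at predetermined dose; visual score at 3 wk post-treatment.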

The subject of a further series is Chenopodium album. The experiment in a line: Test Example 4: herbicidal effect by soil treatment (symbol O). The following applies: 320 g/ha. The gist of the method:
as §2

Series [2] concerns Monochoria vaginalis. As to the kind of experiment: Test Example 2: herbicidal activity, application during weed generation in submerged conditions (symbol C). Particulars: Table 23; application herbicide amount 320 g/ha; grade 0-5 by criteria of Test Example 1. The gist of the method:
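Scoring of herbicidal effect took place 3 weeks after treatment, using the criteria of the earlier test. Treatment was water-surface application of diluted emulsifiable compound at a set dose. Plants were at one- to two-leaf stage in submerged alluvial soil (4 cm depth), greenhouse 25-30° C.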

For the next series, the system named is corn. The experiment in a line: Test Example 5: effect on crop by foliage application, plastic box (symbol c). Particulars: 320 g/ha, 3 weeks after application. The gist of the method: as §1
The subject of series [3] is Echinochloa crus-galli var. crus-galli. The experiment in a line: Test Example 5: herbicidal effect by foliage application, plastic box (symbol H). Particulars: 320 g/ha, 3 weeks after application. The gist of the method:
as §3

Another series deals with Abutilon theophrasti. As to the kind of experiment: Test Example 5: herbicidal effect by foliage application, plastic box (symbol M). The following applies: 320 g/ha, 3 weeks after application. The gist of the method:
as §3

Series [4] deals with directly sowed rice plant. As to the kind of experiment: Test Example 3: effect on crop by foliage application, Wagner pot (symbol b). The following applies: application herbicide amount 320 g/ha. The gist of the method:
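Wagner pot (1/10000 are), alluvial soil, submerged 0.1–0.5 cm; sown E. crus-galli var. crus-galli, L. chinensis, C. difformis, rice; greenhouse 25–30 °C.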

The next series relates to Setaria viridis. As to the kind of experiment: Test Example 4: herbicidal effect by soil treatment (symbol G). The following applies: 320 g/ha. The procedure, abridged:
as §2

A further series has as its system soybean. As to the kind of experiment: Test Example 5: effect on crop by foliage application, plastic box (symbol d). Particulars: 320 g/ha, 3 weeks after application. The procedure, abridged: as §1

With `C=CCN(CC=C)C(=O)OC1=C(c2c(C)cc(C)cc2C)C(=O)C(CC(C)=NOC)C1` (stereo not shown) [1-153], the “f: beet, effect grade on crop” value in the series on beet was 0 (Herbicidal ratio of 5% or lower (almost no effect)). Further, the “g: rapeseed, effect on crop (criteria 0-5)” value in the series on rapeseed was 4 (Herbicidal ratio of 70% or higher and lower than 90%). Moreover, the “Herbicidal effect grade, C: Monochoria vaginalis” value (shortened to “Herbicidal effect grade, C”) in the series with Monochoria vaginalis [1] and in the series with Monochoria vaginalis [2] was 0 (Herbicidal ratio of 5% or lower (almost no effect)) each time. Moreover, the “R: Veronica persica, herbicidal effect grade” value (from here on “R: Veronica persica”) in the series with Veronica persica is 0 (Herbicidal ratio of 5% or lower (almost no effect)). Moreover, in the series with Avena fatua, the “I: Avena fatua, herbicidal effect grade” value is listed as 0 (Herbicidal ratio of 5% or lower (almost no effect)). The “L: Apera spica-venti, herbicidal effect (criteria 0-5)” value in the series with Apera spica-venti is listed as 5 (Herbicidal ratio of 90% or more (almost completely withered)). Further, the “O: Chenopodium album, herbicidal effect grade” value (from here on “O: Chenopodium album”) in the series on Chenopodium album is reported as 0 (Herbicidal ratio of 5% or lower (almost no effect)). For the same compound, the “c: corn, effect on crop (criteria 0-5)” value in the series on corn is 3 (Herbicidal ratio of 40% or higher and lower than 70%). Further, the “H: Echinochloa crus-galli var. crus-galli, herbicidal effect (criteria 0-5)” value in series [3] is listed as 5 (Herbicidal ratio of 90% or more (almost completely withered)). Moreover, in the series on Abutilon theophrasti, the “M: Abutilon theophrasti, herbicidal effect (criteria 0-5)” value was 4 (Herbicidal ratio of 70% or higher and lower than 90%). In addition, the “effect on crop b (directly sowed rice plant), grade 0-5” value (shortened to “effect on crop b”) in series [4] was 5 (Herbicidal ratio of 90% or more (almost completely withered)). Also, the “G: Setaria viridis, herbicidal effect grade” value (“G: Setaria viridis” below) in the series with Setaria viridis was 1 (Herbicidal ratio of 5% or higher and lower than 20%). In the series on soybean, the “d: soybean, effect on crop (criteria 0-5)” value is 1 (Herbicidal ratio of 5% or higher and lower than 20%).

Regarding `CON=C(C)CC1CC(OC(=O)c2ccccc2C(F)(F)F)=C(c2c(C)cc(C)cc2C)C1=O` (stereo not shown) [1-154], in the series on beet, the “f: beet, effect grade on crop” value is on record as 0 (Herbicidal ratio of 5% or lower (almost no effect)). Further, in the series with rapeseed, the “g: rapeseed, effect on crop (criteria 0-5)” value is 4 (Herbicidal ratio of 70% or higher and lower than 90%). Moreover, the “Herbicidal effect grade, C” value in the series on Monochoria vaginalis [1] was 2 (Herbicidal ratio of 20% or higher and lower than 40%); in the series on Monochoria vaginalis [2], 4 (Herbicidal ratio of 70% or higher and lower than 90%). The “R: Veronica persica” value in the series with Veronica persica is 0 (Herbicidal ratio of 5% or lower (almost no effect)). Moreover, the “I: Avena fatua, herbicidal effect grade” value in the series with Avena fatua is given as 0 (Herbicidal ratio of 5% or lower (almost no effect)). Besides, the “L: Apera spica-venti, herbicidal effect (criteria 0-5)” value with Apera spica-venti is 5 (Herbicidal ratio of 90% or more (almost completely withered)). In the series with Chenopodium album, the “O: Chenopodium album” value is 0 (Herbicidal ratio of 5% or lower (almost no effect)). The “c: corn, effect on crop (criteria 0-5)” value in the series on corn is 3 (Herbicidal ratio of 40% or higher and lower than 70%). Besides, in series [3], the “H: Echinochloa crus-galli var. crus-galli, herbicidal effect (criteria 0-5)” value is listed as 5 (Herbicidal ratio of 90% or more (almost completely withered)). In the series with Abutilon theophrasti, the “M: Abutilon theophrasti, herbicidal effect (criteria 0-5)” value is 4 (Herbicidal ratio of 70% or higher and lower than 90%). In addition, the “effect on crop b” value in series [4] is listed as 5 (Herbicidal ratio of 90% or more (almost completely withered)). In addition, the “G: Setaria viridis” value with Setaria viridis is recorded as 5 (Herbicidal ratio of 90% or more (almost completely withered)). Further, the “d: soybean, effect on crop (criteria 0-5)” value in the series on soybean was 3 (Herbicidal ratio of 40% or higher and lower than 70%).

As to `CON=C(C)CC1CC(OC(=O)N(C)c2ccccc2)=C(c2c(C)cc(C)cc2C)C1=O` (stereo not shown) [1-159], the “f: beet, effect grade on crop” value in the series with beet is listed as 0 (Herbicidal ratio of 5% or lower (almost no effect)). Besides, the “g: rapeseed, effect on crop grade” value in the series on rapeseed is 4 (Herbicidal ratio of 70% or higher and lower than 90%). Also, the “Herbicidal effect grade, C” value was 0 (Herbicidal ratio of 5% or lower (almost no effect)) in the series on Monochoria vaginalis [1]; 3 (Herbicidal ratio of 40% or higher and lower than 70%) with Monochoria vaginalis [2]. Besides, the “R: Veronica persica” value in the series with Veronica persica is recorded as 0 (Herbicidal ratio of 5% or lower (almost no effect)). Moreover, in the series on Avena fatua, the “I: Avena fatua, herbicidal effect grade” value is on record as 0 (Herbicidal ratio of 5% or lower (almost no effect)). In addition, the “L: Apera spica-venti, herbicidal effect grade” value with Apera spica-venti is 5 (Herbicidal ratio of 90% or more (almost completely withered)). Moreover, the “O: Chenopodium album” value in the series on Chenopodium album is recorded as 0 (Herbicidal ratio of 5% or lower (almost no effect)). Further, the “c: corn, effect on crop grade” value with corn is 0 (Herbicidal ratio of 5% or lower (almost no effect)). Also, the “H: Echinochloa crus-galli var. crus-galli, herbicidal effect grade” value in series [3] was 4 (Herbicidal ratio of 70% or higher and lower than 90%). Also, the “M: Abutilon theophrasti, herbicidal effect grade” value in the series on Abutilon theophrasti was 4 (Herbicidal ratio of 70% or higher and lower than 90%). Further, the “effect on crop b” value in [4] was 5 (Herbicidal ratio of 90% or more (almost completely withered)). Moreover, the “G: Setaria viridis” value in the series on Setaria viridis is 3 (Herbicidal ratio of 40% or higher and lower than 70%). In addition, the “d: soybean, effect on crop grade” value in the series on soybean was 1 (Herbicidal ratio of 5% or higher and lower than 20%).

As to `CON=C(C)CC1CC(OC(=O)c2c(Cl)nn(C)c2Cl)=C(c2c(C)cc(C)cc2C)C1=O` (stereo not shown) [1-160], the “f: beet, effect grade on crop” value in the series with beet is on record as 0 (Herbicidal ratio of 5% or lower (almost no effect)). Also, the “g: rapeseed, effect on crop grade” value in the series on rapeseed is 5 (Herbicidal ratio of 90% or more (almost completely withered)). Also, the “Herbicidal effect grade, C” value in the series with Monochoria vaginalis [1] is 2 (Herbicidal ratio of 20% or higher and lower than 40%); with Monochoria vaginalis [2], 4 (Herbicidal ratio of 70% or higher and lower than 90%). In the series with Veronica persica, the “R: Veronica persica” value is recorded as 0 (Herbicidal ratio of 5% or lower (almost no effect)). Moreover, the “I: Avena fatua, herbicidal effect grade” value in the series with Avena fatua is on record as 0 (Herbicidal ratio of 5% or lower (almost no effect)). Further, the “L: Apera spica-venti, herbicidal effect grade” value in the series with Apera spica-venti is recorded as 5 (Herbicidal ratio of 90% or more (almost completely withered)). The “O: Chenopodium album” value with Chenopodium album is given as 0 (Herbicidal ratio of 5% or lower (almost no effect)). In the series with corn, the “c: corn, effect on crop grade” value is 4 (Herbicidal ratio of 70% or higher and lower than 90%). In addition, the “H: Echinochloa crus-galli var. crus-galli, herbicidal effect grade” value in series [3] is on record as 5 (Herbicidal ratio of 90% or more (almost completely withered)). Further, in the series with Abutilon theophrasti, the “M: Abutilon theophrasti, herbicidal effect grade” value is 4 (Herbicidal ratio of 70% or higher and lower than 90%). Further, the “effect on crop b” value in series [4] is 5 (Herbicidal ratio of 90% or more (almost completely withered)). Also, the “G: Setaria viridis” value in the series with Setaria viridis was 5 (Herbicidal ratio of 90% or more (almost completely withered)). Besides, in the series with soybean, the “d: soybean, effect on crop grade” value was 2 (Herbicidal ratio of 20% or higher and lower than 40%).

Regarding `CON=C(C)CC1CC(OS(=O)(=O)c2ccc(C)cc2)=C(c2c(C)cc(C)cc2C)C1=O` (stereo not shown) [1-161], the “f: beet, effect grade on crop” value with beet is 0 (Herbicidal ratio of 5% or lower (almost no effect)). Further, the “g: rapeseed, effect on crop grade” value in the series on rapeseed is 3 (Herbicidal ratio of 40% or higher and lower than 70%). Further, the “Herbicidal effect grade, C” value in the series with Monochoria vaginalis [1] was 1 (Herbicidal ratio of 5% or higher and lower than 20%); with Monochoria vaginalis [2] it was 3 (Herbicidal ratio of 40% or higher and lower than 70%). In addition, the “R: Veronica persica” value with Veronica persica is given as 0 (Herbicidal ratio of 5% or lower (almost no effect)). In the series on Avena fatua, the “I: Avena fatua, herbicidal effect grade” value was 0 (Herbicidal ratio of 5% or lower (almost no effect)). Moreover, the “L: Apera spica-venti, herbicidal effect grade” value in the series with Apera spica-venti was 5 (Herbicidal ratio of 90% or more (almost completely withered)). Besides, the “O: Chenopodium album” value in the series on Chenopodium album was 0 (Herbicidal ratio of 5% or lower (almost no effect)). The “c: corn, effect on crop grade” value with corn was 1 (Herbicidal ratio of 5% or higher and lower than 20%). For the same compound, in [3], the “H: Echinochloa crus-galli var. crus-galli, herbicidal effect grade” value is 4 (Herbicidal ratio of 70% or higher and lower than 90%). Besides, the “M: Abutilon theophrasti, herbicidal effect grade” value with Abutilon theophrasti is 0 (Herbicidal ratio of 5% or lower (almost no effect)). In addition, the “effect on crop b” value in [4] is 5 (Herbicidal ratio of 90% or more (almost completely withered)). Besides, the “G: Setaria viridis” value with Setaria viridis is 0 (Herbicidal ratio of 5% or lower (almost no effect)). In the series on soybean, the “d: soybean, effect on crop grade” value is given as 0 (Herbicidal ratio of 5% or lower (almost no effect)).
